Source: US6932975B2, “Cosmetic composition comprising a phosphoric triester and a skin activating component” (Kao Corporation, priority 1997, dated 2005)

System: horny layer of the lower inner arm
Experiment: Retention of moisturizing effect: water content in the horny layer by impedance meter (Example 2)
Assay type: in vivo, human
Details: 20° C., humidity 30%, average N=10; for Retention of moisturizing effect (water content in the horny layer), After 3 hr.: after additional 3 hours, washed with hot water again; for Retention of moisturizing effect (water content in the horny layer), After 15 min.: applied 1 hour, washed off with hot water, 15 minutes after
Experimental: Cosmetics of their corresponding formulations shown in Table 7 were prepared to determine the retention of their moisturizing effects.
A fixed amount of each of the above samples was applied to the lower inner arm of a volunteer and washed off with hot water after left at rest for 1 hour. The volunteer was got to enter an air-conditioned room kept at a temperature of 20° C. and a humidity of 30%. Fifteen minutes after that, the water content in the horny layer of the volunteer was measured by an impedance meter (manufactured by IBS Company). After additional 3 hours, the treated arm was washed with hot water again. Fifty minutes after that, the water content was measured in the same manner as described above. The values shown in the table were average values (N=10).

Row | Molecule | Retention of moisturizing effect (water content in the horny layer), After 3 hr. [μΩ^−1] | Retention of moisturizing effect (water content in the horny layer), After 15 min. [μΩ^−1]
1 | CCCCOCCOP(=O)(OCCOCCCC)OCCOCCCC [Comparative product 9, Tris(butoxyethyl) phosphate] | 40 | 70
2 | OCC(O)CO [Comparative product 11, Glycerol] | 45 | 75
3 | O [Comparative product 12, Purified water] | 40 | 60
4 | Bis(butoxyethoxyethyl)ethyl phosphate [Comparative product 8] | 40 | 70
